The values that follow come from article PMC12722920, “Pharmacokinetics and pharmacodynamics of cannabigerol (CBG) in the C57BL/6Crl mouse” (Frontiers in Pharmacology, 2025).

The structures appear in SMILES notation. Read-outs that look alike come from different tables or passages of the source.

The nature of series [1]: Phase I pharmacokinetic profile: blood concentration vs time by HPLC-MS/MS after a single 10 mg/kg dose. Format: in vivo, C57BL/6Crl mice. As to conditions: for k (terminal phase rate constant): noncompartmental. As for the experimental part: In phase I, male mice were randomly assigned to Groups A, B, C, or D. Interventions per group are specified in Figure 2. Each group was divided into 3 cohorts and randomly assigned to receive p.o., i.p., or i.v. administration. Oral (p.o.) administration cohorts received 10 mg/kg CBG in olive oil with 10% DMSO, and i.p. and i.v. cohorts received 10 mg/kg CBG with 10% DMSO and vehicle (1:1:18 ethanol: kolliphor: saline). PK profiles were developed for blood collection at 10 min, 30 min, 1 h, 3 h, 6 h, 12 h, 18 h, and 24 h. Blood collection was performed using a destructive sampling method, with each mouse providing blood at two time point collections. The initial blood draw aimed to obtain a 100 µL blood sample from the left leg lateral saphenous vein of the mouse, and the second blood draw from the same mouse involved the administration of isoflurane (3%–5%) followed by exsanguination via cardiac puncture. Group A was subjected to two time point blood draws, at 10 min and at 30 min. Groups B-D were first subjected to the cannabinoid-induced tetrad assay, then two time point blood draws. Due to time constraints, the open field test (OFT) was not performed in Phase I.
Blood collection from the saphenous leg vein was drawn into a RAM Scientific Safe-T-Fill™ Capillary blood collection system containing heparin and lithium (Waltham, Massachusetts, U.S). Blood collection from the cardiac puncture was drawn into a syringe and transferred to a 2 mL blood collection tube containing heparin and lithium. Samples were immediately placed on ice, transferred to LoBind® tubes as quickly as possible, and then stored at −80 °C. The blood concentrations of CBG were determined using High-Performance Liquid Chromatography-Tandem Mass Spectrometry (HPLC-MS/MS).
The PK parameters for CBG were determined by GraphPad Prism (v. 10.2.3). Linear regression analysis natural log of the concentration versus time curve was utilized to derive the terminal phase rate constant (k), from which the terminal phase half-life (t1/2) was calculated using the ratio (0.693/k). For both p.o. and i.p. administration, the Cmax was obtained directly from visual inspection of the blood concentration versus time profiles. For the purposes of this study, Tmax refers to the time at which Cmax was reported. The log-linear trapezoidal method was used to calculate the total area under the curve (AUC) of the average blood concentrations versus time profile with extrapolation to infinity, where the tail of the AUC (i.e., last concentration extrapolated to infinity) was calculated as the ratio Cp,last/k. Bioavailability was estimated by dividing the mean total AUC∞ for each route of administration by the total AUC observed for each compound following i.v. administration (where F = 100%, by definition). Systemic clearance (ClS) was calculated as the ratio Dose i.v. /AUC ∞ . The apparent volume of distribution (Vd) was calculated as Dose i.v. /(k × AUC ∞ ).
HPLC-MS/MS was used to quantify CBG in the blood using a 1,260 Agilent (Agilent Technologies Canada, Mississauga, ON) High Performance Liquid Chromatography (HPLC) system connected to an AB Sciex 4,000 Hybrid Triple Quadruple Linear Ion Trap Mass Spectrometer (QTRAP) equipped with a Turboionspray™ interface (AB Sciex, Concord, ON). The analytical method was developed and validated for mouse blood. An Infinity lab Phenyl Hexyl column (4.6 × 12.5 mm, 5 μm) and guard column (4.6 × 12.5 mm, 5 μm) were used to separate compounds, and the temperature was set to 50 °C.

In a further series the test system is C57BL/6Crl mice. The experiment in a line: Cannabinoid tetrad: internal body temperature (rectal thermometer). Format: in vivo. As to conditions: for ED50: Mus musculus, iv.
On the set-up of series [2]: method as in Deiana et al., 2012. Particulars: ref Deiana et al., 2012, cited from earlier work.
The subject of a further series is CB1R. Also on record: method as in earlier work. As to conditions: ref El-Alfy et al., 2010; Navarro et al., 2018; Zagzoog et al., 2020; cited from earlier work.
Where [3] appears, read: 10 mg/kg i.v., male mice, blood.
Where [4] appears, read: C57BL/6Crl, mouse, whole blood, ip, 10 mg/kg i.p., male mice, blood.
[5] abbreviates: C57BL/6Crl, mouse, whole blood, iv, 10 mg/kg i.v., male mice, blood.
Where [6] appears, read: C57BL/6Crl, mouse, whole blood, po, 10 mg/kg p.o., male mice, blood.

The AUC(0-inf) is the area under the concentration-time curve extrapolated to infinity. The low end stands for low exposure, the high end for high exposure. One may read the Cmax as the maximum level reached in the sampled fluid or tissue. The Tmax is the time at which the peak concentration occurs. By half-life is commonly meant the time in which the quantity being followed falls by half. As usually defined, the clearance is the volume of plasma or blood freed of the substance per unit of time. As usually defined, the ED50 is the dose at which the effect has come halfway, by size or by number of responders. Low readings indicate an effect at a small dose, high ones a need for a large dose. For `CCCCCc1cc(O)c(C/C=C(\C)CCC=C(C)C)c(O)c1` [CBG, cannabigerol], in series [1] (10 mg/kg CBG, male mice), the “p.o. Cmax as percent of i.p. Cmax” value is recorded as 2%. In addition, the “k (terminal phase rate constant)” value worked out at 0.069 h⁻¹ in series [1] (10 mg/kg i.p., male mice, blood) and 0.0698 h⁻¹ in series [1] (setting [3]). For the same compound, the α in series [1] (setting [3]) came to 1.016 h⁻¹. In addition, the AUC(0-inf) in series [1] (setting [4]) came out at 1170 ng·h/mL; in series [1] (setting [5]), 2800 ng·h/mL. Also, the Cmax in series [1] (setting [4]) worked out at 516 ng/mL; in series [1] (setting [6]), 10.5 ng/mL. The figures for the Tmax in series [1] (setting [4]) and in series [1] (setting [6]) were 0.5 h and 3 h, respectively. In addition, the half-life in series [1] (setting [4]) is 10 h; in series [1] (setting [5]) it was 9.9 h. The clearance in series [1] (C57BL/6Crl, mouse, whole blood, iv, 10 mg/kg i.v., male mice, read-out: ClS (systemic clearance)) came to 59.4 mL/min/kg. In series [1] (C57BL/6Crl, mouse, whole blood, iv, 10 mg/kg i.v., male mice, read-out: Vd (apparent volume of distribution)), the Vd stood at 51.1 L/kg. Further, the concentration at 10 min in series [1] (male, C57BL/6Crl, mouse, whole blood, iv, 10 mg/kg, i.v., males, read-out: C at 10 min (blood concentration 10 min post-administration)) worked out at 2840 ng/mL. In addition, the “body temperature vs vehicle” value is “significant increase in temperature” with C57BL/6Crl mice (10 mg/kg i.p. or p.o., male mice, 15 min post-injection); “decreased body temperature compared to vehicle” in the series on C57BL/6Crl mice (10 mg/kg, all routes (i.v. 15 min, i.p. 25 min, p.o. 175 min), male and female mice). For the same compound, in the series on C57BL/6Crl mice (1, 3, 10 or 30 mg/kg i.v., male and female mice), the “hypothermia, dose-response” value was “produced a modest effect but only at the highest dose tested, 30 mg/kg”. The ED50 in the series on C57BL/6Crl mice (0.25 h, both sexes, 15 min post-administration) is over 30 mg/kg; in the series with C57BL/6Crl mice (males), over 30 mg/kg. In addition, the “effect on body temperature, dose-response” value with C57BL/6Crl mice (i.v., Phase II) is “did not alter body temperature”. Further, the “time to peak plasma concentration (Tmax)” value was 2 h in series [2] (i.p.) and 0.5 h in series [2] (p.o.). In the series on CB1R, the “CB1R affinity relative to THC” value is “approximately one-twentieth”.
